Values of other authors in patent US20230277510A1, “SIROLIMUS MICROSPHERES AND METHOD OF MAKING SIROLIMUS MICROSPHERES” (M.A. Med Alliance SA, priority 2022, published 2023).

CO[C@H]1C[C@@H]2CC[C@@H](C)[C@@](O)(O2)C(=O)C(=O)N2CCCC[C@H]2C(=O)O[C@H]([C@H](C)C[C@@H]2CC[C@@H](O)[C@H](OC)C2)CC(=O)[C@H](C)/C=C(\C)[C@@H](O)[C@@H](OC)C(=O)[C@H](C)C[C@H](C)/C=C/C=C/C=C/1C [SRL, sirolimus]
octanol/water partition coefficient (log P): 4.3
